# From patent publication US20070184175A1, “CONTINUOUS PRODUCTION OF CEREAL FLOUR AND WHOLE-CEREAL FLOUR FOR GRAIN-BASED FOODS, USING A LOW-MOISTURE PRECOOKING” (priority 2005, published 2007)
# Legend:
# [1] = parameters: concentration or dose not given beside the values; conditions: Kikuzaki et al. (2002); cited from earlier work
# [2] = Davalos et al. (2004); cited from earlier work
# [3] = concentration of Trolox solution with equivalent antioxidant capacity to a 1 mM concentration of the compound; cited from earlier work
# [4] = ABTS radical scavenging assay; assay type: biochemical; conditions: Intasa-Chromadex analytical test report, 2006; gallic as positive-control
# Method: Kikuzaki et al. (2002) previously published the DPPH radical-scavenging and increasing inhibition effects of ferulic, oryzanol (steryl-ferulate), BHT, α-tocopherol (Trolox) and gallic acid (27%<21%<29%<42%<76%). A TEAC test was defined as the concentration of Trolox solution with equivalent antioxidant capacity to a 1 mM concentration of the compound (Rice-Evans et al. 1996). Similar increasing values were found for α-tocopherol (Trolox), caffeic, ferulic and gallic acid (1.0<1.3<1.9<3.0). It also reflects the ability of hydrogen-donating antioxidants to scavenge the ABTS-radical). However, Davalos et al. (2004) used a different ORAC-FL (Oxygen radical absorbance capacity) test which described the μmol trolox equivalents per μmol of pure compound: BHA (synthetic), ferulic and protocatechuic (similar to gallic) with increasing values of 2.4, 4.5 and 6.7, respectively. This latter assay has been largely applied to assess free radical scavenging capacity of human plasma, proteins, DNA, pure antioxidant compounds and new antioxidants from plant and food extracts (Prior et al. 1999).
# [5] = ingestion or topical applications; cited from earlier work
"IC50 or 50% inhibition value, ABTS radical scavenging [4] [ppm]",Compound,DPPH radical-scavenging inhibition effect [1] [%],ORAC-FL [2],TEAC [3],acute or chronic side effects [5]
,oryzanol,21,,,
,O=C(O)c1ccc(O)c(O)c1 [protocatechuic],,6.7 μmol trolox equivalents per μmol of pure compound,,
1.5,"O=C(O)c1cc(O)c(O)c(O)c1 [gallic, gallic acid]",76,,3.0,
,Cc1cc(C(C)(C)C)c(O)c(C(C)(C)C)c1 [BHT],29,,,
,O=C(O)/C=C/c1ccc(O)c(O)c1 [caffeic],,,1.3,
,COc1ccc(O)c(C(C)(C)C)c1 [BHA],,2.4 μmol trolox equivalents per μmol of pure compound,,
,"Cc1c(C)c2c(c(C)c1O)CC[C@@](C)(CCC[C@H](C)CCC[C@H](C)CCCC(C)C)O2 [α-tocopherol (Trolox), α-tocopherol]",42,,1.0,
3.3,"COc1cc(/C=C/C(=O)O)ccc1O [ferulic, ferulic acid]",27,4.5 μmol trolox equivalents per μmol of pure compound,1.9,No acute or chronic side effects
